# Source: patent US9259408B2, “Use of DHA, EPA or DHA-derived EPA for treating a pathology associated with cellular oxidative damage” (Brudy Technology S.L., priority 2005, dated 2016)
# What was measured:
# [1] = tested on: Foreskin cells; assay: Superoxide anion generation (luminol chemiluminescence) in Foreskin cells; format: cell-based, human; conditions: 40 mM AAPH, with or without DHA; 10 mM Tyron or 0.1875 UA/μl exogenous SOD
# Experimental: Direct measurement of the superoxide anion was carried out by means of the chemiluminescence technique on microplate measured by luminol (Calbiochem, No. 574590). Chemiluminescence for detecting the superoxide anion is a technique used due to its potential for gaining access to all the intracellular sites of superoxide generation, due to the high specificity of the reaction with luminol, the minimal intracellular toxicity and the increased sensitivity in relation to other chemical techniques. It is based on the superoxide anion oxidising luminol in a reaction that produces photons of light which are quickly measured on a standard illuminometer. In our tests we used a chemiluminescence reader on microplate from ELISA, MITHRAS and furthermore, given the short half-life of the radical, an enhancer was used to increase the sensitivity of the test and amplify the response. […] The chemiluminescence measurement in the cells submitted to the AAPH oxidative stress inducing treatment was analysed every […] for a total time of 4100 seconds, at a frequency of 120 sec/cycle. […]
# [2] = tested on: ARPE-19 cells (retina pigmentary epithelial cells, CRL-2302); assay: ROS generation in ARPE-19 cells under AAPH oxidative stress (DHR123/H2DCFDA); format: cell-based
# Experimental: (§1) The cellular models used were Foreskin cells (undifferentiated epidermal fibroblasts, CRL-2076) and ARPE-19 cells (retina pigmentary epithelial cells, CRL-2302) obtained from the American Type Culture Collection. The cell cultures were kept in suitable growth conditions of temperature (37° C.), CO2 concentration (5%) and humidity (95%) in an incubator specially designed for this purpose. The ARPE-19 cells were maintained in growth up to confluence of 0.3×10^4 cells/cm^2 in culture flasks with DMEM-F12 medium (Biological Industries) supplemented with 10% bovine foetal serum, penicillin antibiotics (100 U/mL), streptomycin (100 μg/mL) and glutamine (Biological Industries). […]
# (§2) The ROS level was measured in primary cultures of human skin CRL-2076 fibroblasts and in ARPE-19 retinal epithelial cells by employing the fluorimetric technique using dihydrorodamine 123 (DHR123, Molecular Probes) and 2,7-dichlorofluorescein diacetate (H2DCFDA, Molecular Probes) as fluorescent probes in a continuous system measuring every 30 min until 180 minutes. […] The fluorescence of the oxidised probes (2,7-dichlorofluorescein and rodamine 123) was measured in a Mithras fluorescence reader at an excitation wavelength of 488 nm and an emission wavelength of 525 nm in function of the time. […]
# [3] = tested on: Foreskin cells; assay: Lipidic peroxides (TBARS/MDA) in Foreskin cells; format: cell-based, human; conditions: 40 mM AAPH; 50 μM DHA-TG
# Experimental: The measurement of malonildialdehyde (MDA) on cell lysates was used as a marker of lipidic peroxidation by UV-Vis spectrophotometry. The MDA and the 4-hydroxyalkenals (HAE) are products derived from the peroxidation of polyunsaturated fatty acids and related esters. Direct measurements of these aldehydes constitutes a convenient index of lipidic peroxidation. A chromogenic reagent (N-methyl-2-phenyl-indole in acetonitrile) which reacts with the MDA at 45° C. was employed, using the commercial lipidic peroxidation kit from Calbiochem (No. 437634). The condensation of one molecule of MDA with two molecules of the chromogenic reagent gives a stable chromophore with maximum absorbance at 586 nm, with the detection limit being 0.1 μM. The induction was carried out for 6 h with 40 mM AAPH and 24 hours of latency. The cells (10^7 cells/mL) were lysed by means of cycles of freezing and thawing in liquid N2. The samples were fractionated in order to measure MDA and protein. The results were expressed in μM of MDA/mg of protein.
# [4] = tested on: Foreskin cells (undifferentiated epidermal fibroblasts, CRL-2076); assay: ROS generation in Foreskin cells under xanthine/xanthine oxidase oxidative stress (CDCFDA); format: cell-based, human; conditions: 100 μM Vitamin E
# Experimental: as §1, §2
compound,measurement,setting,value
"O=S(=O)(O)c1cc(O)c(O)c(S(=O)(=O)O)c1 [Tyron, 4,5-dihydroxy-1,3-benzene disulphonic acid, reference compound]",production of superoxide anion in cells stressed with AAPH,[1],totally inhibited
"CCCCS(=N)(=O)CCC(N)C(=O)O (stereo not shown) [BSO, Buthionine sulfoximine, reference compound]",effect of addition of BSO on the protective effect of DHA,[2],eliminates the protective effect of DHA
"CC/C=C\C/C=C\C/C=C\C/C=C\C/C=C\C/C=C\CCC(=O)O [DHA, docosahexaenoic acid]",protection against lipidic peroxides (TBARS),[3],48%
vitamin E [reference compound],inhibition of cellular oxidation,[4],30%
